# According to patent publication US6828144B2, “Method of observing vasculogenesis in vitro using cultured allantois” (Wisconsin Alumni Research Foundation, priority 1996, dated 2004):
# Where two headings read alike, the source gives them in different places.
# System: headfold-stage allantoic explants
# Settings: for formation / retention of vascular channels in explants: 5% FCS, feeding at 24 hour intervals, by 72 hours
# Protocol: At the onset of culture, or at varying times thereafter, known test compounds, such as Vascular Endothelial Growth Factor (VEGF, R & D Systems, Minneapolis, Minn.), are prepared according to the manufacturer's instructions and added to the cultures in concentrations recommended by the manufacturer (e.g., 1-20 ng VEGF/ml culture medium) or, in the case of unknown test compounds, in varying concentrations to determine the one that either inhibits or enhances vasculogenesis.
# To test that possibility, recombinant VEGE (1-10 ng/ml culture medium) was added to explants at the start of culture in 5% FOS.
# For survival and vascularization, allantoises were mouth-aspirated into a hand-pulled glass microcapillary (K. M. Downs and R. L. Gardner, supra, 1995; K. M. Downs, et al., supra, 1998) and either cultured in suspension as previously described (K. M. Downs, et al., supra, 1998) or placed individually (i) into wells of 24-well tissue-culture plates (Falcon 3047), (ii) onto glass cover slips (12 mm, Fisher) coated for 30 minutes in filtered (0.45 μm, cellulose acetate) poly-D-lysine (1 mg/ml double processed tissue culture water; Sigma) inserted into wells of 24-well tissue-culture plates and rinsed 34 times with sterile water, (iii) into sterile 8-well plastic chamber slides (Lab-Tek, Nunc), or (iv) into 8-well glass chamber slides some of which were coated in poly-D-lysine. Allantoises were cultured in 0.5 ml (24-well tissue-culture dishes or Falcon culture tubes (K. M. Downs and R. L. Gardner, supra, 1995) or 0.4 ml (8-well chamber slides) of culture medium (Dulbecco's modified Eagle's medium (DMEM) containing either equal parts of immediately-centrifuged and heat-inactivated rat serum as previously described (K. M. Downs and R. L. Gardner, supra, 1995) or 5, 10 and 20% heat-inactivated fetal calf serum (Gibco-BRL; frozen and thawed twice before using) for 24-72 hours at 37° C. in 6.2% CO2 in air. For culture longer than 24 hours, allantoises were given completely fresh medium at 24-hour intervals. In some experiments, erythrosin B (Fisher; 0.04% in phosphate-buffered saline (PBS); H. J. Phillips and J. E. Terryberry, Exp. Cell Res. 13:341-347, 1957) was diluted 1:1 in dissection medium to verify allantoic cell viability. Vascular Endothelial Growth Factor (R & D System,s Minneapolis, Minn.) was prepared according to the manufacturer's instructions and was added to culture medium containing 5% FCS in concentrations of 1-20 ng/ml.
# To test that possibility, recombinant VEGF (1-10 ng/ml culture medium) was added to explants at the start of culture in 5% FCS.
substance,measurement,setting,value
VEGF,formation / retention of vascular channels in explants,VEGF 1 ng/ml,devoid of such channels
same,cell survival (cell retention),"VEGF 2-10 ng/ml in 5% FCS, untreated explants in FCS alone 36%",78%
same,formation / retention of vascular channels in explants,"VEGF 2-10 ng/ml, added at start of culture",retention of Flk-1 containing vascular channels and overlying VCAM-1 positive cells
same,formation / retention of vascular channels in explants,"VEGF 2-10 ng/ml, added at start of culture, listed as Vascular Endothelial Growth Factor",formation of many vascular channels containing Flk-1 and Flt-1
same,survival of angioblasts and morphogenesis into vessels,explants cultured in low serum,promoted their survival and morphogenesis into vessels
